pIC50: −log10 of the molar value.
Target: T1, human kidney glutaminase (Homo sapiens, UniProt O94925)
T1 construct: made in house; host or cells: SF9 insect cells (alternatively HEK human kidney cells); cell lysate
T1 sequence (O94925 55-669): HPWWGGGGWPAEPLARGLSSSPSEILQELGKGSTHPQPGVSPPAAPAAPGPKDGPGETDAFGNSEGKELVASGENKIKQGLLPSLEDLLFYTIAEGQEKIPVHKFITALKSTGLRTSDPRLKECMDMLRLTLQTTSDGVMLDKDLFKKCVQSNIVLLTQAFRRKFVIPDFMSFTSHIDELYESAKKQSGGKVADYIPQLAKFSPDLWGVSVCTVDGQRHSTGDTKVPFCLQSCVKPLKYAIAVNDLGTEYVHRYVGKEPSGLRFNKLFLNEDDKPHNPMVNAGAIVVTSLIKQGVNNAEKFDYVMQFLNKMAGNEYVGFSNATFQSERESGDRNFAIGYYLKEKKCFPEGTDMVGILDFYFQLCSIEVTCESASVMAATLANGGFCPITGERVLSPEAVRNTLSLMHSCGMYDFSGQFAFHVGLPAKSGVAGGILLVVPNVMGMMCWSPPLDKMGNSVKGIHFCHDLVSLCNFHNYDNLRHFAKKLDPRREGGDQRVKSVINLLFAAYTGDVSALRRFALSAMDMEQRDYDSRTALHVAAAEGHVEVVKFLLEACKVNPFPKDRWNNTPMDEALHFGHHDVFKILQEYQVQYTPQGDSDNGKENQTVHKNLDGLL
Assay: Glutaminase inhibition: cell free assay
Assay type: biochemical
Details: not given
Experimental: Compounds of formula I were tested for inhibition of human kidney glutaminase as described in Example 2.
Glutaminase Inhibition: Cell Free Assay
Glutaminase gene-transfected SF9 cells were collected in a 50-mL polypropylene conical tube by centrifugation at 500×g for 10 min (Eppendorf Centrifuge 5810R, F34-6-38 rotor). The supernatant was discarded, and the cell pellet was stored at −80° C. For preparation of the lysate, the cells were thawed on ice and resuspended by pipetting in 0.8 mL cold lysis buffer with 0.5 mM 4-(2-aminoethyl)- benzenesulfonyl fluoride (AEBSF), a serine protease inhibitor. The suspension was stored in ice for 20 min, then subjected to two freeze-thaw cycles (liquid nitrogen followed by a room temperature water bath).
The volume of the cell homogenate was measured, and 1/3 volume of 1 M sucrose was added, to give a final concentration of 0.25 M sucrose. Aliquots 100 μL in volume were placed in 1.5 mL microtubes and stored at −80° C.
Alternatively, HEK (human kidney) cells were used. The medium was removed by aspiration, 5 mL PBS/1 mM EDTA was added, and the culture was incubate for 3 min to allow cells to detach. The cells were collected in a 50-mL conical tube using Eppendorf Centrifuge 5810R, F34-6-38 rotor, and spun at 200×g for 5 min. The supernatant was discarded, and the cell pellet was resuspended pipetting (approximately 0.12 g wet weight) in 0.3 mL lysis buffer with 0.5 mM AEBSF. The tube was left in ice for 20 min. […] subjected to two freeze-thaw cycles as described above. Aliquots 100 μL in volume were placed in 1.5 mL microtubes and stored at −80° C.
The activity of the enzyme was determined colorimetrically. One unit of enzyme activity is defined as the amount of enzyme required to generate net OD 540nm=0.6 in a total reaction volume of 220 μL in one hour at room temperature.
Assay plates were prepared containing 2 μL test compound in DMSO/well. The enzyme was diluted to 1 unit (liver) or 0.8 unit (kidney)/100 μL in glutaminase assay buffer, and 100 μl diluted enzyme was added to each well of the assay plate by Multidrop (Labsystems). The contents were mixed by shaking at full speed for 1 min on TiterMix 100 (Brinkmann). The plates were preincubated at room temperature (RT) for 20 min to allow binding of test compounds to glutaminase, and 50 μL glutamine solution (7 mM in assay buffer) was added to each well by Multidrop. The contents were shaken at full speed for 30 sec on TiterMix 100 (Brinkmann), and the plates were then incubated at RT for 60 min (liver) or 90 min (kidney). To stop the reactions, 20 μL HCl (0.3 N) was added to each well by Multidrop and mixed immediately by shaking for 30 sec on TiterMix 100.
For quantification, glutamate (formed by glutaminase-catalyzed hydrolysis of glutamine) is oxidized to 2-oxoglutarate by a second enzyme, glutamate dehydrogenase (GDH), with the concomitant production of the reduced form of nicotinamide adenine dinucleotide (NADH). Reduction of nitro blue tetrazolium (NBT) in the assay solution by NADH, catalyzed by phenazine methosulphate (PMS), results in the formation of a blue-purple formazan. The absorption of formazan at 540 nm is linearly proportional to the concentration of glutamate up to 200 μM.
NBT/GDH reagent (50 μl) was added to each well by Multidrop and mixed by shaking for 30 sec on TiterMix 100, and the plates were incubated at RT for 20 min to allow color formation by the GDH reaction. Glutamate concentration was determined from formazan concentration as determined by reading OD540 nm on a SpectraMax 340.

SMILES | pIC50
Cc1cccc(C(=O)Nc2nnc(CCSCCc3nnc(NC(=O)c4cccc(C)c4)s3)s2)c1 [SNX-1831] | 5.95
CCOC(=O)Nc1nnc(CCSCCc2nnc(NC(=O)OCC)s2)s1 [SNX-1852] | 5.75
COc1ccccc1C(=O)Nc1nnc(CCSCCc2nnc(NC(=O)c3ccccc3OC)s2)s1 [SNX-1855] | 5.31
O=C(Nc1nnc(CCSCCc2nnc(NC(=O)c3ccccc3)s2)s1)c1ccccc1 [SNX-1830] | 5.97
O=C(Nc1nnc(CCSCCc2nnc(NC(=O)c3ccco3)s2)s1)c1ccco1 [SNX-1836] | 5.95
COc1ccc(C(=O)Nc2nnc(CCSCCc3nnc(NC(=O)c4ccc(OC)cc4)s3)s2)cc1 [SNX-1832] | 6.34
O=C(Nc1nnc(CCSCCc2nnc(NC(=O)c3cccs3)s2)s1)c1cccs1 [SNX-1837] | 6.41
CC(C)(C)C(=O)Nc1nnc(CCSCCc2nnc(NC(=O)C(C)(C)C)s2)s1 [SNX-1851] | 5.78

Test system: microglia (BV-2) cells
Assay: Inhibition of microglial glutamate secretion
Assay type: cell-based
Details: not given
Experimental: As described in Wood, glutamate efflux from microglia is dependent on the presence of added external glutamine. […] Therefore, the concentration of glutamate in the culture medium can be used directly as a measure of glutamate production by these cells.
In assaying the invention compounds, microglia (BV-2) cells were cultured using standard methods, as described in Example 4. On the day of the experiment, cells were incubated in glutamine free medium for 1 to 1.5 hours, then glutamine and test compounds, dissolved in glutamine free medium, were added. Aliquots were removed at 2 h and 4 h for glutamate analysis.
Inhibition of Microglial Glutamate Secretion
BV-2 cells were cultured in 24 well plates using Dulbeccos minimal essential medium containing 10% heat inactivated fetal bovine serum, and grown to 70-80% confluency before use. On the day of the experiment, cells were placed in glutamine free medium for 1 to 1.5 hours. […] This solution was used to replace one half of the 0.5 mL culture medium volume at the end of the glutamine free incubation. Aliquots of 10 μL medium were removed at 2 h and 4 h and placed in 96 well microtiter plates with 90 μL DMF/water (1:9) for glutamate analysis.

SMILES | Glutamine dependent glutamate efflux from microglia
[N-]=[N+]=CC(=O)CC[C@H](N)C(=O)O [DON, 6-diazo-5-oxo-L-norleucine, reference compound] | inhibited

Test system: isolated neurons
Assay: not given
Details: Dugan et al., 1995; read-out: IC50 for toxicity on isolated neurons; cited from earlier work

SMILES | pIC50
N[C@@H](CCC(=O)O)C(=O)O [glutamate] | 5.00 to 5.30

Source: US6451828B1, “Selective inhibition of glutaminase by bis-thiadiazoles” (priority 2000, dated 2002)
